# Assay results from patent US10035830B2, “Method for treatment of GM1 gangliosidosis” (Korea Research Institute of Bioscience and Biotechnology, priority 2014, dated 2018).
# Experiments:
# [1] = system: GM1-NPCs originated neurosphere; test: Recovery of GM1-NPCs/neurosphere morphology by the inhibition of inflammasome (phase-contrast microscopy); assay type: cell-based, human; conditions: GM1-NPCs cultured with 1 μg/ml rhIL1RA or 10 μM Z-YVAD-FMK, 2~4 weeks; FIG. 30a
# Method: To investigate the recovery of neural damage caused by the increased activation of inflammasome related metabolic pathway in GM1, GM1-NPCs were treated with the inflammasome inhibitors IL1β antagonist (rhIL1RA) and caspase-1 inhibitor (Z-YVAD-FMK), and then the morphology of GM1-NPCs was investigated.
# Particularly, the differentiation of GM1-NPCs was induced by the same manner as described in Example <4-1>. Then, the induced GM1-NPCs were cultured in the culture medium respectively treated with 1 μg/ml rhIL1RA (R&D Systems, USA) or 10 μM Z-YVAD-FMK (Merck Millipore, Germany) in order to inhibit inflammasome therein. 2˜4 weeks later, the cultured GM1-NPCs originated neurosphere was obtained. The morphology of neurosphere was observed by phase-contrast microscopy.
# GM1-NPCs = test: Gene expression pattern in GM1-NPCs treated with inflammasome inhibitor (microarray, qPCR); assay type: cell-based, human; conditions: for tendency of changed genes to recover to the normal gene expression pattern: GM1-NPCs treated with Z-YVAD-FMK (10 μM) or rhIL1RA (1 μg/ml), FIG. 31, 33
# Method: Particularly, GM1-iPSCs were constructed by the same manner as described in Example 2 and the differentiation of GM1-NPCs was induced by the same manner as described in Example <4-1>. Then, RNA was extracted from GM1-fibroblasts, GM1-iPSCs, or GM1-NPCs by using RNAiso Plus (Takara, Japan) or RNeasy mini kit (Qiagen, USA) according to the manufacturer's protocol. Reverse transcription PCR (PT PCR) was performed using 1˜2 μg of the extracted RNA as a template with Superscript III (Invitrogen, USA) in order to synthesize cDNA of the cell genome. Upon completion of the RT-PCR, 10 μl of qPCR reaction mixture was prepared by mixing 0.2 μl of the reaction product above, 1 μM oligonucleotide primer, […] of FAST SYBR green master mix (Applied Biosystems, USA), and distilled water, which proceeded to qPCR using 7500 Fast Real-time PCR system (Applied Biosystems, USA). The expression of the control GAPDH gene was also confirmed by the same manner as described above to correct the expression level. Based on the expression level of GAPDH mRNA, the fold change of NESTIN, NCAM, PAX6, OTX2, or REX1 mRNA was calculated.
# Particularly, GM1-iPSCs were constructed by the same manner as described in Example 2, and the differentiation of GM1-NPCs was induced therefrom by the same manner as described in Example <4-1>. Then, GM1-fibroblasts, GM1-iPSCs, and GM1-NPCs were obtained. Microarray was performed by using Low RNA input linear amplification kit, cRNA cleanup module, and Whole Human Genome Microarray 4×44K (Agilent Technology, USA) according to the manufacturer's protocol. The obtained microarray images were revised as signals corresponding to WT-fibroblasts, WT-iPSCs, and WT-NPCs.
# Particularly, GM1-NPCs were differentiated according to the method described in Example <4-1>, and then treated with rhIL1RA or Z-YVAD-FMK by the same manner as described in Example <9-1>. Microarray was performed by the same manner as described in Example <7-1> in order to investigate the up- or down-regulation of the gene involved in inflammasome. […] WT-NPC was used as the normal control. As for the negative control, GM1-NPCs were treated with DMSO instead of rhIL1RA or Z-YVAD-FMK. The expression pattern (either up- or down regulation) and the mRNA expression level were investigated by the same manner as described above.
# [2] = GM1-NPCs treated with Z-YVAD-FMK (10 μM), FIG. 32
Compound,morphology of GM1-neurosphere [1],tendency of changed genes to recover to the normal gene expression pattern (GM1-NPCs),"genes displaying the changed expression pattern (GM1-NPCs; GM1-NPCs treated with rhIL1RA (1 μg/ml), FIG. 33) [%]",increase of the reduced B4GALNT expression (GM1-NPCs; [2]) [fold],reduction of GLB1 expression compared with that in GM1-NPCs (GM1-NPCs; [2]) [%],"oligo probe pairs displaying the changed expression pattern (GM1-NPCs; GM1-NPCs treated with Z-YVAD-FMK (10 μM), of total 27,375 oligo probe pairs, microarray, FIG. 31) [%]"
"rhIL1RA: interleukin 1-receptor antagonist protein, SEQ. ID. NO: 2; cat #280-RA-050 (rhIL-1ra), R&D systems",recovering the GM1 patient-specific cell morphology,tendency to recover the abnormal gene expression in GM1 cells to the normal expression pattern,3.6,–,–,–
"COC(=O)C[C@H](NC(=O)[C@H](C)NC(=O)[C@@H](NC(=O)C(Cc1ccc(O)cc1)NC(=O)OCc1ccccc1)C(C)C)C(=O)CF (stereo partly drawn) [Z-YVAD-FMK, methyl(3S)-3-[(2S)-2-[(2S)-2-(2-{[(benzyloxy)carbonyl]amino}-3-(4-hydroxyphenyl)propanamido)-3-methylbutanamido]propanamido]-5-fluoro-4-oxopentanoate]",recovering the GM1 patient-specific cell morphology,tendency to recover their gene expression patterns changed by GM1 mediated neural damage back to the normal pattern,–,2.6,47,9.3
